Patent publication US7629150B2, “Transformed cell harboring DNA or RNA encoding sugar chain synthesizing agent having β1,3-N-acetylglucosaminyltransferase activity” (Kyowa Hakko Kirin Co., Ltd., priority 2000, dated 2009)

Assays:
G6sec1 = molecular target: T1, G6sec1 (Homo sapiens, UniProt Q9BYG0); test: β1,3-N-acetylglucosaminyltransferase activity of purified FLAG peptide-fused G6 polypeptide, 2-aminobenzamide-labeled oligosaccharide substrates; assay type: biochemical; conditions: for Relative activity (%) Test 1 G6sec1: 2-aminobenzamide-labeled oligosaccharides, LNnT defined as 100%
T1 construct: made in house; host or cells: Sf21 insect cells infected with pVL1393-F2G6sec1-derived recombinant baculovirus
T1 sequence (Q9BYG0 36-378): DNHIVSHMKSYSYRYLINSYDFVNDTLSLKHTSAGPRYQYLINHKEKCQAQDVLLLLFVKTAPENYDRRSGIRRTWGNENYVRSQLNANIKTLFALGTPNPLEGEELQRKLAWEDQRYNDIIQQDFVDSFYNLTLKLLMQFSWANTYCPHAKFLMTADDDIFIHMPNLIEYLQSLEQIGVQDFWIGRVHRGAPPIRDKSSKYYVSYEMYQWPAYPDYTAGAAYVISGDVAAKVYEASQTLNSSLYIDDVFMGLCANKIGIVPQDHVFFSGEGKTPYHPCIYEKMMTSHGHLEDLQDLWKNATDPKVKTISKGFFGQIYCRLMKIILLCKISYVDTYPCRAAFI
Protocol: (§1) β1,3-N-Acetylglucosaminyltransferase activity of the FLAG peptide-fused G6 polypeptide secreted and produced in insect cells was measured by using the eluate prepared in Example 8(6). The method of Example 7 was used for the activity measurement.
(§2) As substrates, oligosaccharides [LNnT, Galβ1-4GlcNAcβ1-3Galβ1-4GlcNAc (hereinafter referred to as “2LN”), Galβ1-4GlcNAcβ1-3Galβ1-4GlcNAcβ1-3Galβ1-4GlcNAc (hereinafter referred to as “3LN”), Galβ1-4GlcNAcβ1-3Galβ1-4GlcNAcβ1-3Galβ1-4GlcNAcβ1-3Galβ1-4GlcNAc (hereinafter referred to as “4LN”), Galβ1-4GlcNAcβ1-3Galβ1-4GlcNAcβ-3Galβ1-4GlcNAcβ1-3Galβ1-4GlcNAcβ1-3Galβ1-4GlcNAc (hereinafter referred to as “5LN”), or Galβ1-4(SO3-6)GlcNAcβ1-3Galβ1-4(SO3-6)GlcNAc (hereinafter referred to as “L2L2”)] were labeled with 2-aminobenzamide and used. 2-Aminobenzamide-labeling of oligosaccharides was carried out using SIGMA 2AB glycan labeling kit (manufactured by Oxford Glycoscience) according to the manufacture's instructions of the kit. LNnT was purchased from Oxford Glycosystems. Other oligosaccharides were obtained from Seikagaku Corporation.
Specifically, the reaction was carried out at 37° C. for 16 hours in 20 μl of an assay solution [150 mmol/l sodium cacodylate (pH 7.2), 50 mmol/l UDP-GlcNAc (manufactured by SIGMA), 0.4% Triton CF-54, 10 mmol/l MnCl2, 5 μmol/12-aminobenzamide-labeled sugar chain substrate, the above purified enzyme solution], and then the product was detected by high performance liquid chromatography (HPLC, details will be described below). […]
(§3) The assay solution after completion of the reaction was treated at 100° C. for 5 minutes and then mixed with 50 μl of pure water for HPLC and centrifuged at 10,000×g for 5 minutes to obtain the supernatant. To a tube containing the assay solution, 50 μl of pure water for HPLC was added again, the tube was washed, and suparnatant was obtained by centrifugation at 10,000×g for 5 minutes and was combined with the first supernatant. Next, the supernatant was passed through Ultrafree-MC column (manufactured by Millipore) and a portion thereof (10 μl) was subjected to HPLC. The Ultrafree-MC column was used according to the method described in the manufacture's instructions attached thereto.
(§4) The HPLC was carried out using TSK-gel ODS-80Ts Column (4.6×300 mm; manufactured by TOSOH) as a column and 0.02 mol/l ammonium acetate buffer containing 7% methanol (pH 4.0) as an eluant at an elution temperature of 50° C. and a flow rate of 1 ml/min.
(§5) The product was detected using a fluorescence spectrophotometer FP-920 (manufactured by JASCO Corporation) (excitation wavelength: 330 nm, radiation wavelength: 420 nm).

G6sec2 = molecular target: T2, G6sec2 (Homo sapiens, UniProt Q9BYG0); test: as above; assay type: biochemical; conditions: for Relative activity (%) Test 1 G6sec2 / Relative activity (%) Test 2 G6sec2: 2-aminobenzamide-labeled oligosaccharides, LNnT defined as 100%; for Relative activity (%) Test 2 G6sec2: enzyme prepared again
T2 construct: made in house; host or cells: Sf21 insect cells infected with pVL1393-F2G6sec2-derived recombinant baculovirus
T2 sequence (Q9BYG0 39-378): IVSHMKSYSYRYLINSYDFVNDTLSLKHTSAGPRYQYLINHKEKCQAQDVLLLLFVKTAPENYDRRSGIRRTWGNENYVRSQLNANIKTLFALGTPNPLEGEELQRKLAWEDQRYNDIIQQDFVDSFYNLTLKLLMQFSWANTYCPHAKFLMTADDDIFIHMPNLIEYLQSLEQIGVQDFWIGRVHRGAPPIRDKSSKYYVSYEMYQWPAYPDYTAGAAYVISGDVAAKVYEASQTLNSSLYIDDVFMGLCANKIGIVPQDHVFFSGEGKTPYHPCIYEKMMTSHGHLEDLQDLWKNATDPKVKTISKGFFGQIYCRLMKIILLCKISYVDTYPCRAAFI
Protocol: as §1, §2
Specifically, the reaction was carried out at 37° C. for 16 hours in 20 μl of an assay solution [150 mmol/l sodium cacodylate (pH 7.2), 50 mmol/l UDP-GlcNAc (manufactured by SIGMA), 0.4% Triton CF-54, 10 mmol/l MnCl2, 5 μmol/12-aminobenzamide-labeled sugar chain substrate, the above purified enzyme solution], and then the product was detected by high performance liquid chromatography (HPLC, details will be described below). As the enzyme, an eluate (1.5 μl) prepared from a culture supernatant of Sf21 infected with the recombinant virus derived from pVL1393-F2G6sec1 or an eluate (1.4 μl) prepared from a culture supernatant of Sf21 infected with the recombinant virus derived from pVL1393-F2G6sec2, prepared in Example 8(6), was used.
as §3, §4, §5
Also, a purified enzyme (G6sec2) was again prepared using the method shown in Example 8(6), its substrate specificity was again examined, and the results are also shown in Table 1 (Test 2 in Table 1). The purified enzyme (280 μl) was prepared from 30 ml of a culture supernatant of Sf21 infected with the recombinant virus derived from pVL1393-F2G6sec2, and the assay was carried out using a 4 μl portion thereof. Relative activities when the activity measured using 2-aminobenzamide-labeled LNnT as the substrate is defined as 100% are shown in the table.

CC(=O)N[C@H]1[C@H](O[C@H]2[C@@H](O)[C@@H](CO)O[C@@H](O[C@H]3[C@H](O)[C@@H](O)C(O)O[C@@H]3CO)[C@@H]2O)O[C@H](CO)[C@@H](O[C@@H]2O[C@H](CO)[C@H](O)[C@H](O)[C@H]2O)[C@@H]1O (mixture of isomers) [LNnT, lacto-N-neotetraose]
Relative activity (%) Test 1 G6sec1 (G6sec1): 100%
conversion efficiency of the substrate (G6sec1; G6sec1-adsorbed ANTI-FLAG M1 AFFINITY GEL used as enzyme): 6.64%
conversion efficiency of the substrate into the product (G6sec1; G6sec1 eluate 1.5 μl, 2-aminobenzamide-labeled substrate, 37° C., 16 hours (Test 1)): 9.85%
Relative activity (%) Test 1 G6sec2 (G6sec2): 100%
Relative activity (%) Test 2 G6sec2 (G6sec2): 100%
conversion efficiency of the substrate into the product (G6sec2; G6sec2 eluate 1.4 μl, 2-aminobenzamide-labeled substrate, 37° C., 16 hours (Test 1)): 11.2%
conversion efficiency into the product (G6sec2; G6sec2 prepared again, 4 μl, 2-aminobenzamide-labeled substrate (Test 2)): 26.2%

CC(=O)N[C@H]1[C@H](O[C@H]2[C@@H](O)[C@@H](CO)O[C@@H](O[C@H]3[C@H](O)[C@@H](NC(C)=O)C(O)O[C@@H]3CO)[C@@H]2O)O[C@H](CO)[C@@H](O[C@@H]2O[C@H](CO)[C@H](O)[C@H](O)[C@H]2O)[C@@H]1O (stereo partly shown) [2LN, Galβ1-4GlcNAcβ1-3Galβ1-4GlcNAc]
Relative activity (%) Test 1 G6sec1 (G6sec1): 81.4%
Relative activity (%) Test 1 G6sec2 (G6sec2): 86.8%
Relative activity (%) Test 2 G6sec2 (G6sec2): 65.3%
